Measured values from ChEMBL document CHEMBL3603774, “Novel 5-functionalized-pyrazoles: Synthesis, characterization and pharmacological screening” (Bioorg Med Chem Lett, 2015).
In brackets after ≈: the same amount, converted by molar mass.

How the values were obtained:
Alpha amylase = target: T1, Alpha amylase (Homo sapiens, UniProt P0DUB6); experiment: Inhibition of alpha-amylase (unknown origin) using starch as substrate after 30 mins by spectrophotometer analysis
T1 sequence (P0DUB6 whole entry): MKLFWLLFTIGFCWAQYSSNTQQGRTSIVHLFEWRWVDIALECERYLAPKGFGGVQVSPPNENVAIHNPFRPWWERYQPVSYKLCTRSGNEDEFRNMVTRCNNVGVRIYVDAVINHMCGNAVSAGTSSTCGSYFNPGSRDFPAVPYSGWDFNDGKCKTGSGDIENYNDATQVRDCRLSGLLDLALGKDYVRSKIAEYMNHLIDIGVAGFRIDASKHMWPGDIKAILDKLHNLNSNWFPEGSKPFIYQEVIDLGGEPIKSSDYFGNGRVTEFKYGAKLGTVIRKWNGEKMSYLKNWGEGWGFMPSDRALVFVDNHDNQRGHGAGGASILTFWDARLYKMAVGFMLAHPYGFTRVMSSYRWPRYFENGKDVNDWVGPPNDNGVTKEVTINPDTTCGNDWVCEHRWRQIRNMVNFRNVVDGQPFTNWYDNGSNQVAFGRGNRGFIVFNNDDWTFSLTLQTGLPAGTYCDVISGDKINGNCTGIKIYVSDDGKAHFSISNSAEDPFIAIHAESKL

Staphylococcus aureus [1] = experiment: Antibacterial activity against Staphylococcus aureus MTCC 96 assessed as concentration required to completely destroy test microorganisms after 24 hrs; type: functional; conditions: MTCC 96, 24 h
Klebsiella pneumoniae [2] = experiment: Antibacterial activity against Klebsiella pneumoniae MTCC 3384 at 100 ug/ml after 24 hrs by disc diffusion method; type: functional; conditions: MTCC 3384, 24 h, read-out: IZ
Staphylococcus aureus [3] = experiment: Antibacterial activity against Staphylococcus aureus MTCC 96 after 24 hrs by microdilution method; type: functional; conditions: MTCC 96, 24 h
Klebsiella pneumoniae [4] = experiment: Antibacterial activity against Klebsiella pneumoniae MTCC 3384 at 50 ug/ml after 24 hrs by disc diffusion method; type: functional; conditions: MTCC 3384, 24 h, read-out: IZ
Klebsiella pneumoniae [5] = experiment: Antibacterial activity against Klebsiella pneumoniae MTCC 3384 assessed as concentration required to completely destroy test microorganisms after 24 hrs; type: functional; conditions: MTCC 3384, 24 h
[6] = Inhibition of alpha-glucosidase (unknown origin) using p-nitrophenol glycoside as substrate after 30 mins by colorimetric analysis; parameters: species or system Homo sapiens
Aspergillus niger [7] = experiment: Antifungal activity against Aspergillus niger MTCC 281 at 50 ug/ml after 24 hrs by disc diffusion method; type: functional; conditions: MTCC 281, 24 h, read-out: IZ
Escherichia coli [8] = experiment: Antibacterial activity against Escherichia coli MTCC 724 assessed as concentration required to completely destroy test microorganisms after 24 hrs; type: functional; conditions: MTCC 724, 24 h
Bacillus cereus [9] = experiment: Antibacterial activity against Bacillus cereus MTCC 8372 after 24 hrs by microdilution method; type: functional; conditions: MTCC 8372, 24 h
Aspergillus flavus [10] = experiment: Antifungal activity against Aspergillus flavus MTCC 873 assessed as concentration required to completely destroy test microorganisms after 24 hrs; type: functional
Aspergillus flavus [11] = experiment: Antifungal activity against Aspergillus flavus MTCC 873 at 100 ug/ml after 24 hrs by disc diffusion method; type: functional; conditions: for zone of inhibition at 100 µg/mL: MTCC 873, 24 h, read-out: IZ
Escherichia coli [12] = experiment: Antibacterial activity against Escherichia coli MTCC 724 at 100 ug/ml after 24 hrs by disc diffusion method; type: functional; conditions: MTCC 724, 24 h, read-out: IZ
Bacillus cereus [13] = experiment: Antibacterial activity against Bacillus cereus MTCC 8372 at 50 ug/ml after 24 hrs by disc diffusion method; type: functional; conditions: MTCC 8372, 24 h, read-out: IZ
Klebsiella pneumoniae [14] = experiment: Antibacterial activity against Klebsiella pneumoniae MTCC 3384 after 24 hrs by microdilution method; type: functional; conditions: MTCC 3384, 24 h
Escherichia coli [15] = experiment: Antibacterial activity against Escherichia coli MTCC 724 after 24 hrs by microdilution method; type: functional; conditions: MTCC 724, 24 h
Aspergillus flavus [16] = experiment: Antifungal activity against Aspergillus flavus MTCC 873 after 48 hrs by microdilution method; type: functional
Bacillus cereus [17] = experiment: Antibacterial activity against Bacillus cereus MTCC 8372 assessed as concentration required to completely destroy test microorganisms after 24 hrs; type: functional; conditions: MTCC 8372, 24 h
Staphylococcus aureus [18] = experiment: Antibacterial activity against Staphylococcus aureus MTCC 96 at 50 ug/ml after 24 hrs by disc diffusion method; type: functional; conditions: MTCC 96, 24 h, read-out: IZ
Bacillus cereus [19] = experiment: Antibacterial activity against Bacillus cereus MTCC 8372 at 100 ug/ml after 24 hrs by disc diffusion method; type: functional; conditions: MTCC 8372, 24 h, read-out: IZ
Aspergillus niger [20] = experiment: Antifungal activity against Aspergillus niger MTCC 281 assessed as concentration required to completely destroy test microorganisms after 24 hrs; type: functional
Aspergillus niger [21] = experiment: Antifungal activity against Aspergillus niger MTCC 281 after 48 hrs by microdilution method; type: functional
Aspergillus flavus [22] = experiment: Antifungal activity against Aspergillus flavus MTCC 873 at 50 ug/ml after 24 hrs by disc diffusion method; type: functional; conditions: for zone of inhibition at 50 µg/mL: MTCC 873, 24 h, read-out: IZ
Staphylococcus aureus [23] = experiment: Antibacterial activity against Staphylococcus aureus MTCC 96 at 100 ug/ml after 24 hrs by disc diffusion method; type: functional; conditions: MTCC 96, 24 h, read-out: IZ
Aspergillus niger [24] = experiment: Antifungal activity against Aspergillus niger MTCC 281 at 100 ug/ml after 24 hrs by disc diffusion method; type: functional; conditions: MTCC 281, 24 h, read-out: IZ
Escherichia coli [25] = experiment: Antibacterial activity against Escherichia coli MTCC 724 at 50 ug/ml after 24 hrs by disc diffusion method; type: functional; conditions: MTCC 724, 24 h, read-out: IZ

CCOC(=O)c1c(-c2ccccc2)nn(-c2ccccc2)c1COc1ccc(C=O)cc1
IC50 (Alpha amylase): 60 µg/mL (≈ 141 µM)
MBC (Staphylococcus aureus [1]): 210 µg/mL (≈ 492 µM)
zone of inhibition at 100 µg/mL (Klebsiella pneumoniae [2]): 12 mm
MIC (Staphylococcus aureus [3]): 40 µg/mL (≈ 93.8 µM)
zone of inhibition at 50 µg/mL (Klebsiella pneumoniae [4]): 8 mm
MBC (Klebsiella pneumoniae [5]): 230 µg/mL (≈ 539 µM)
IC50 [6]: 65 µg/mL (≈ 152 µM)
zone of inhibition at 50 µg/mL (Aspergillus niger [7]): 12 mm
MBC (Escherichia coli [8]): 235 µg/mL (≈ 551 µM)
MIC (Bacillus cereus [9]): 40 µg/mL (≈ 93.8 µM)
MFC (Aspergillus flavus [10]; MTCC 873, 24 h): 275 µg/mL (≈ 645 µM)
zone of inhibition at 100 µg/mL (Aspergillus flavus [11]): 5 mm
zone of inhibition at 100 µg/mL (Escherichia coli [12]): 16 mm
zone of inhibition at 50 µg/mL (Bacillus cereus [13]): 3 mm
MIC (Klebsiella pneumoniae [14]): 55 µg/mL (≈ 129 µM)
MIC (Escherichia coli [15]): 55 µg/mL (≈ 129 µM)
MIC (Aspergillus flavus [16]; MTCC 873, 48 h): 40 µg/mL (≈ 93.8 µM)
MBC (Bacillus cereus [17]): 210 µg/mL (≈ 492 µM)
zone of inhibition at 50 µg/mL (Staphylococcus aureus [18]): 2 mm
zone of inhibition at 100 µg/mL (Bacillus cereus [19]): 3 mm
MFC (Aspergillus niger [20]; MTCC 281, 24 h): 260 µg/mL (≈ 610 µM)
MIC (Aspergillus niger [21]; MTCC 281, 48 h): 45 µg/mL (≈ 106 µM)
zone of inhibition at 50 µg/mL (Aspergillus flavus [22]): 20 mm
zone of inhibition at 100 µg/mL (Staphylococcus aureus [23]): 8 mm
zone of inhibition at 100 µg/mL (Aspergillus niger [24]): 10 mm
zone of inhibition at 50 µg/mL (Escherichia coli [25]): 10 mm

CCOC(=O)c1c(-c2ccccc2)nn(-c2ccccc2)c1Cn1cnc2cc([N+](=O)[O-])ccc21
IC50 (Alpha amylase): 30 µg/mL (≈ 64.2 µM)
MBC (Staphylococcus aureus [1]): 190 µg/mL (≈ 406 µM)
zone of inhibition at 100 µg/mL (Klebsiella pneumoniae [2]): 11 mm
MIC (Staphylococcus aureus [3]): 25 µg/mL (≈ 53.5 µM)
zone of inhibition at 50 µg/mL (Klebsiella pneumoniae [4]): 6 mm
MBC (Klebsiella pneumoniae [5]): 185 µg/mL (≈ 396 µM)
IC50 [6]: 30 µg/mL (≈ 64.2 µM)
zone of inhibition at 50 µg/mL (Aspergillus niger [7]): 5 mm
MBC (Escherichia coli [8]): 180 µg/mL (≈ 385 µM)
MIC (Bacillus cereus [9]): 35 µg/mL (≈ 74.9 µM)
MFC (Aspergillus flavus [10]; MTCC 873, 24 h): 290 µg/mL (≈ 620 µM)
zone of inhibition at 100 µg/mL (Aspergillus flavus [11]): 10 mm
zone of inhibition at 100 µg/mL (Escherichia coli [12]): 18 mm
zone of inhibition at 50 µg/mL (Bacillus cereus [13]): 5 mm
MIC (Klebsiella pneumoniae [14]): 25 µg/mL (≈ 53.5 µM)
MIC (Escherichia coli [15]): 25 µg/mL (≈ 53.5 µM)
MIC (Aspergillus flavus [16]; MTCC 873, 48 h): 55 µg/mL (≈ 118 µM)
MBC (Bacillus cereus [17]): 200 µg/mL (≈ 428 µM)
zone of inhibition at 50 µg/mL (Staphylococcus aureus [18]): 6 mm
zone of inhibition at 100 µg/mL (Bacillus cereus [19]): 10 mm
MFC (Aspergillus niger [20]; MTCC 281, 24 h): 280 µg/mL (≈ 599 µM)
MIC (Aspergillus niger [21]; MTCC 281, 48 h): 65 µg/mL (≈ 139 µM)
zone of inhibition at 50 µg/mL (Aspergillus flavus [22]): 6 mm
zone of inhibition at 100 µg/mL (Staphylococcus aureus [23]): 12 mm
zone of inhibition at 100 µg/mL (Aspergillus niger [24]): 10 mm
zone of inhibition at 50 µg/mL (Escherichia coli [25]): 8 mm

CCOC(=O)c1c(-c2ccccc2)nn(-c2ccccc2)c1COCc1ccccc1
IC50 (Alpha amylase): 45 µg/mL (≈ 109 µM)
MBC (Staphylococcus aureus [1]): 210 µg/mL (≈ 509 µM)
zone of inhibition at 100 µg/mL (Klebsiella pneumoniae [2]): 6 mm
MIC (Staphylococcus aureus [3]): 40 µg/mL (≈ 97 µM)
zone of inhibition at 50 µg/mL (Klebsiella pneumoniae [4]): 3 mm
MBC (Klebsiella pneumoniae [5]): 230 µg/mL (≈ 558 µM)
IC50 [6]: 45 µg/mL (≈ 109 µM)
zone of inhibition at 50 µg/mL (Aspergillus niger [7]): 12 mm
MBC (Escherichia coli [8]): 210 µg/mL (≈ 509 µM)
MIC (Bacillus cereus [9]): 50 µg/mL (≈ 121 µM)
MFC (Aspergillus flavus [10]; MTCC 873, 24 h): 270 µg/mL (≈ 655 µM)
zone of inhibition at 100 µg/mL (Aspergillus flavus [11]): 10 mm
zone of inhibition at 100 µg/mL (Escherichia coli [12]): 6 mm
zone of inhibition at 50 µg/mL (Bacillus cereus [13]): 2 mm
MIC (Klebsiella pneumoniae [14]): 45 µg/mL (≈ 109 µM)
MIC (Escherichia coli [15]): 45 µg/mL (≈ 109 µM)
MIC (Aspergillus flavus [16]; MTCC 873, 48 h): 55 µg/mL (≈ 133 µM)
MBC (Bacillus cereus [17]): 255 µg/mL (≈ 618 µM)
zone of inhibition at 50 µg/mL (Staphylococcus aureus [18]): 2 mm
zone of inhibition at 100 µg/mL (Bacillus cereus [19]): 8 mm
MFC (Aspergillus niger [20]; MTCC 281, 24 h): 265 µg/mL (≈ 642 µM)
MIC (Aspergillus niger [21]; MTCC 281, 48 h): 45 µg/mL (≈ 109 µM)
zone of inhibition at 50 µg/mL (Aspergillus flavus [22]): 8 mm
zone of inhibition at 100 µg/mL (Staphylococcus aureus [23]): 6 mm
zone of inhibition at 100 µg/mL (Aspergillus niger [24]): 8 mm
zone of inhibition at 50 µg/mL (Escherichia coli [25]): 4 mm

NYSTATIN
MFC (Aspergillus flavus [10]): 100 µg/mL
inhibition zone (IZ) (Aspergillus flavus [11]): 20 mm
MIC (Aspergillus flavus [16]): 8 µg/mL
MFC (Aspergillus niger [20]): 100 µg/mL
MIC (Aspergillus niger [21]): 10 µg/mL
inhibition zone (IZ) (Aspergillus flavus [22]): 16 mm
